According to ChEMBL document CHEMBL4265936, “Pyrazolo[4,3-b]pyrimido[4,5-e][1,4]diazepine derivatives as new multi-targeted inhibitors of Aurora A/B and KDR” (Eur J Med Chem, 2018):

Assays:
MKN-45 [1] = assay: Antiproliferative activity against human MKN45 cells after 72 hrs by sulforhodamine B assay; assay type: functional, cell-based; conditions: MKN-45, 72 h
[2] = Terminal elimination half life in ICR mouse at 25 mg/kg, po administered as single dose by LC-MS analysis; assay type: ADME, organism-based; conditions: in vivo, read-out: beta t1/2 (converted)
[3] = Volume of distribution at steady state in ICR mouse at 5 mg/kg, iv administered as single dose by LC-MS analysis; assay type: ADME, organism-based; conditions: in vivo, read-out: Vdss
[4] = Cmax in ICR mouse at 25 mg/kg, po administered as single dose by LC-MS analysis; assay type: ADME, organism-based; parameters: dose 25 mg/kg, route oral; conditions: in vivo
[5] = biological target: Vascular endothelial growth factor receptor 2 (Homo sapiens, UniProt P35968); assay: biochemical; assay type: cell-based, Sf21
Description: Inhibition of recombinant human N-terminal His6-tagged KDR (790 to end residues) expressed in baculovirus infected Sf21 insect cells after 60 mins by ELISA

[6] = biological target: Insulin-like growth factor 1 receptor (Homo sapiens) (UniProt P08069); assay: Inhibition of recombinant human IGF1R at 100 nM after 60 mins by ELISA relative to control
[7] = MRT in ICR mouse at 5 mg/kg, iv administered as single dose by LC-MS analysis; assay type: ADME, organism-based; conditions: in vivo
[8] = biological target: Vascular endothelial growth factor receptor 1 (Homo sapiens) (UniProt P17948); assay: Inhibition of recombinant human VEGFR1 at 1000 nM after 60 mins by ELISA relative to control
Mus musculus [9] = assay: AUC (0 to t) in ICR mouse at 25 mg/kg, po administered as single dose by LC-MS analysis; assay type: ADME, organism-based; conditions: in vivo
[10] = biological target: Epidermal growth factor receptor (Homo sapiens) (UniProt P00533); assay: Inhibition of recombinant human EGFR at 100 nM after 60 mins by ELISA relative to control
MKN-74 [11] = assay: Cell cycle arrest in human MKN74 cells assessed as accumulation at G2/M phase after 24 hrs by propidium iodide staining based flow cytometry; assay type: functional
[12] = biological target: Receptor tyrosine-protein kinase erbB-2 (Homo sapiens) (UniProt P04626); assay: Inhibition of recombinant human Erbb2 at 1000 nM after 60 mins by ELISA relative to control
Mus musculus [13] = assay: Toxicity in nude mouse xenografted with human SNU5 cells assessed as mortality at 20 mg/kg, po qd for 21 days; assay type: organism-based; conditions: in vivo, 504 h
[14] = biological target: Proto-oncogene tyrosine-protein kinase Src (Homo sapiens) (UniProt P12931); assay: Inhibition of recombinant human c-SRC at 100 nM after 60 mins by ELISA relative to control
[15] = biological target: Proto-oncogene tyrosine-protein kinase receptor Ret (Homo sapiens) (UniProt P07949); assay: Inhibition of recombinant human RET at 100 nM after 60 mins by ELISA relative to control
[16] = biological target: Platelet-derived growth factor receptor beta (Homo sapiens) (UniProt P09619); assay: Inhibition of recombinant human PDGFRbeta at 100 nM after 60 mins by ELISA relative to control
BGC-823 = assay: Antiproliferative activity against human BGC823 cells after 72 hrs by sulforhodamine B assay; assay type: functional, cell-based; conditions: BGC-823, 72 h
Mus musculus [17] = assay: AUC (0 to t) in ICR mouse at 5 mg/kg, iv administered as single dose by LC-MS analysis; assay type: ADME, organism-based; conditions: in vivo
[18] = biological target: Platelet-derived growth factor receptor beta (Homo sapiens) (UniProt P09619); assay: Inhibition of recombinant human PDGFRbeta at 1000 nM after 60 mins by ELISA relative to control
MKN-45 [19] = assay: Cell cycle arrest in human MKN45 cells assessed as accumulation at G2/M phase after 24 hrs by propidium iodide staining based flow cytometry; assay type: functional
[20] = Tmax in ICR mouse at 25 mg/kg, po administered as single dose by LC-MS analysis; assay type: ADME, organism-based; conditions: in vivo
SNU-5 [21] = assay: Antitumor activity against human SNU5 cells xenografted in nude mouse assessed as delay in tumor growth at 20 mg/kg, po qd for 21 days relative to control; assay type: functional
[22] = Terminal elimination half life in ICR mouse at 5 mg/kg, iv administered as single dose by LC-MS analysis; assay type: ADME, organism-based; conditions: in vivo, read-out: beta t1/2 (converted)
[23] = biological target: Vascular endothelial growth factor receptor 1 (Homo sapiens) (UniProt P17948); assay: Inhibition of recombinant human VEGFR1 at 100 nM after 60 mins by ELISA relative to control
[24] = biological target: Proto-oncogene tyrosine-protein kinase Src (Homo sapiens) (UniProt P12931); conditions: at 1000 nM
Description: Inhibition of recombinant human c-SRC at 1000 nM after 60 mins by ELISA relative to control

[25] = biological target: Ephrin type-A receptor 2 (Homo sapiens) (UniProt P29317); assay: Inhibition of recombinant human EPHA2 at 100 nM after 60 mins by ELISA relative to control
SGC-7901 [26] = assay: Cell cycle arrest in human SGC7901 cells assessed as accumulation at G2/M phase after 24 hrs by propidium iodide staining based flow cytometry; assay type: functional
[27] = biological target: Tyrosine-protein kinase ABL1 (Homo sapiens) (UniProt P00519); conditions: at 1000 nM
Description: Inhibition of recombinant human ABL at 1000 nM after 60 mins by ELISA relative to control

SNU-5 [28] = assay: Antiproliferative activity against human SNU5 cells after 72 hrs by CCK8 assay; assay type: functional, cell-based; conditions: SNU-5, 72 h
SGC-7901 [29] = assay: Antiproliferative activity against human SGC7901 cells after 72 hrs by sulforhodamine B assay; assay type: functional, cell-based; conditions: SGC-7901, 72 h
[30] = biological target: Insulin-like growth factor 1 receptor (Homo sapiens) (UniProt P08069); assay: Inhibition of recombinant human IGF1R at 1000 nM after 60 mins by ELISA relative to control
SNU-5 [31] = assay: Cell cycle arrest in human SNU5 cells assessed as accumulation at G2/M phase after 24 hrs by propidium iodide staining based flow cytometry; assay type: functional
Aurora kinase A = biological target: T1, Aurora kinase A (Homo sapiens, UniProt O14965); assay: Inhibition of Aurora A (unknown origin) using STK S2 as substrate after 40 mins by HTRF assay
T1 sequence (O14965 whole entry): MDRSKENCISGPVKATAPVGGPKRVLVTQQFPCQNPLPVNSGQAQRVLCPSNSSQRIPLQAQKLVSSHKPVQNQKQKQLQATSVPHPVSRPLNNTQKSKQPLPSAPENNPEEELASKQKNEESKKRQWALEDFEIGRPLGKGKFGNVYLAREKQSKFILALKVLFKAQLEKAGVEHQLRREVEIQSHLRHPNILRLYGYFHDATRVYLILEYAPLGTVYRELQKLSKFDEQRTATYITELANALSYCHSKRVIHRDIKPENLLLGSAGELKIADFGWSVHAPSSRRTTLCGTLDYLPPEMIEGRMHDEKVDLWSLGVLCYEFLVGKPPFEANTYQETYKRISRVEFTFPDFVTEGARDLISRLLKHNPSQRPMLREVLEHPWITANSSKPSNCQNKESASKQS

MKN-74 [32] = assay: Antiproliferative activity against human MKN74 cells after 72 hrs by sulforhodamine B assay; assay type: functional, cell-based; conditions: MKN-74, 72 h
Mus musculus [33] = assay: Toxicity in nude mouse xenografted with human SNU5 cells assessed as body weight at 20 mg/kg, po qd for 21 days (reference value: 19.6 g); assay type: organism-based; conditions: in vivo, 504 h
[34] = biological target: Epidermal growth factor receptor (Homo sapiens) (UniProt P00533); conditions: at 1000 nM
Description: Inhibition of recombinant human EGFR at 1000 nM after 60 mins by ELISA relative to control

[35] = Oral bioavailability in ICR mouse at 25 mg/kg administered as single dose by LC-MS analysis; assay type: ADME, organism-based; conditions: in vivo
[36] = biological target: Proto-oncogene tyrosine-protein kinase receptor Ret (Homo sapiens) (UniProt P07949); assay: Inhibition of recombinant human RET at 1000 nM after 60 mins by ELISA relative to control
[37] = biological target: Receptor tyrosine-protein kinase erbB-4 (Homo sapiens) (UniProt Q15303); assay: Inhibition of recombinant human Erbb4 at 1000 nM after 60 mins by ELISA relative to control
[38] = biological target: Receptor tyrosine-protein kinase erbB-4 (Homo sapiens) (UniProt Q15303); assay: Inhibition of recombinant human Erbb4 at 100 nM after 60 mins by ELISA relative to control
Aurora kinase B = Aurora kinase B (Homo sapiens, UniProt Q96GD4); assay: Inhibition of Aurora B (unknown origin) using STK S2 as substrate after 30 mins by HTRF assay
[39] = biological target: Tyrosine-protein kinase ABL1 (Homo sapiens) (UniProt P00519); assay: Inhibition of recombinant human ABL at 100 nM after 60 mins by ELISA relative to control
[40] = biological target: Receptor tyrosine-protein kinase erbB-2 (Homo sapiens) (UniProt P04626); assay: Inhibition of recombinant human Erbb2 at 100 nM after 60 mins by ELISA relative to control
[41] = Clearance in ICR mouse at 5 mg/kg, iv administered as single dose by LC-MS analysis; assay type: ADME, organism-based; conditions: in vivo

Chain of Proto-oncogene tyrosine-protein kinase receptor Ret (Homo sapiens) (P07949 whole entry): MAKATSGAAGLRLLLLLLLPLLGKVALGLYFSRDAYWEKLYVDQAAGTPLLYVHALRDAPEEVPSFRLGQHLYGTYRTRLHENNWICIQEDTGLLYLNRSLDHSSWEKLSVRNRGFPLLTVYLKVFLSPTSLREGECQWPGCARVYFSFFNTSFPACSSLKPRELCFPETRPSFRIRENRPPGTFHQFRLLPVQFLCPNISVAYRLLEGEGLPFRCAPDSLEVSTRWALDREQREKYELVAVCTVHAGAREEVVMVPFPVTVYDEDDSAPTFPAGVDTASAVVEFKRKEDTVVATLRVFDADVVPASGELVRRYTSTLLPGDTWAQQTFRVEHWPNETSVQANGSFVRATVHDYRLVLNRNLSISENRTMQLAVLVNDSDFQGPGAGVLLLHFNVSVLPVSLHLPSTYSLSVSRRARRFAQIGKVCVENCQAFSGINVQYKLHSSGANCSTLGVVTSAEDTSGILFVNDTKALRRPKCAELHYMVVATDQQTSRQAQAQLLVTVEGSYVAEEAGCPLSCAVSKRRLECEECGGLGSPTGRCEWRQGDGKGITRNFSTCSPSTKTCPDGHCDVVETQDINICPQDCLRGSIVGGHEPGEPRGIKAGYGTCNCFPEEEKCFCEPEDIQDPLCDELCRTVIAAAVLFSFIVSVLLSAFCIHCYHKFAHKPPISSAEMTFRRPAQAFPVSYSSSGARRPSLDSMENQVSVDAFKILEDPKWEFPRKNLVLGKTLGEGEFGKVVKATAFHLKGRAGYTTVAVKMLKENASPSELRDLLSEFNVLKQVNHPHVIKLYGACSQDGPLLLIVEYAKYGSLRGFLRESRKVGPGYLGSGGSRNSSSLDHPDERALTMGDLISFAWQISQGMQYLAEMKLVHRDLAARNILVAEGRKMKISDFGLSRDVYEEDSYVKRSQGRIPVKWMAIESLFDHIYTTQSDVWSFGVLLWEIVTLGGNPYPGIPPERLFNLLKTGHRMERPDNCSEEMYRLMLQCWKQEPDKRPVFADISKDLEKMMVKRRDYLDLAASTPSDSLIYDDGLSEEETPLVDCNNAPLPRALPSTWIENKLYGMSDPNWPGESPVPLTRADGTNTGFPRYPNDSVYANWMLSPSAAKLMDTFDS
Chain of Proto-oncogene tyrosine-protein kinase Src (Homo sapiens) (P12931 2-536 limits assumed): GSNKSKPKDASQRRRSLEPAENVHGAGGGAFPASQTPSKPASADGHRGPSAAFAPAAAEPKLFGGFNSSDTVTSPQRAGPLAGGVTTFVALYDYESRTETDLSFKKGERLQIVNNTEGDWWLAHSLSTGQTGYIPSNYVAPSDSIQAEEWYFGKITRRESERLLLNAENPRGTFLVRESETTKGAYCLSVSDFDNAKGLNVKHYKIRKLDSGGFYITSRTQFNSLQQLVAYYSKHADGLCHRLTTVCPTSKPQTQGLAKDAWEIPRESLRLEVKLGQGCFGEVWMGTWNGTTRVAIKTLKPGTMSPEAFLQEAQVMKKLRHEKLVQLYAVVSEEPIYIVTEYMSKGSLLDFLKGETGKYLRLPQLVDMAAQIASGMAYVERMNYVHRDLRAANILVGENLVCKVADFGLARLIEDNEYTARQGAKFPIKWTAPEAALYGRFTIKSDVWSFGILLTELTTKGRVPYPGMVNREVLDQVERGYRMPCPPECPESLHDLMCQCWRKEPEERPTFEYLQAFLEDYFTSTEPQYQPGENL
Chain of Platelet-derived growth factor receptor beta (Homo sapiens) (P09619 whole entry): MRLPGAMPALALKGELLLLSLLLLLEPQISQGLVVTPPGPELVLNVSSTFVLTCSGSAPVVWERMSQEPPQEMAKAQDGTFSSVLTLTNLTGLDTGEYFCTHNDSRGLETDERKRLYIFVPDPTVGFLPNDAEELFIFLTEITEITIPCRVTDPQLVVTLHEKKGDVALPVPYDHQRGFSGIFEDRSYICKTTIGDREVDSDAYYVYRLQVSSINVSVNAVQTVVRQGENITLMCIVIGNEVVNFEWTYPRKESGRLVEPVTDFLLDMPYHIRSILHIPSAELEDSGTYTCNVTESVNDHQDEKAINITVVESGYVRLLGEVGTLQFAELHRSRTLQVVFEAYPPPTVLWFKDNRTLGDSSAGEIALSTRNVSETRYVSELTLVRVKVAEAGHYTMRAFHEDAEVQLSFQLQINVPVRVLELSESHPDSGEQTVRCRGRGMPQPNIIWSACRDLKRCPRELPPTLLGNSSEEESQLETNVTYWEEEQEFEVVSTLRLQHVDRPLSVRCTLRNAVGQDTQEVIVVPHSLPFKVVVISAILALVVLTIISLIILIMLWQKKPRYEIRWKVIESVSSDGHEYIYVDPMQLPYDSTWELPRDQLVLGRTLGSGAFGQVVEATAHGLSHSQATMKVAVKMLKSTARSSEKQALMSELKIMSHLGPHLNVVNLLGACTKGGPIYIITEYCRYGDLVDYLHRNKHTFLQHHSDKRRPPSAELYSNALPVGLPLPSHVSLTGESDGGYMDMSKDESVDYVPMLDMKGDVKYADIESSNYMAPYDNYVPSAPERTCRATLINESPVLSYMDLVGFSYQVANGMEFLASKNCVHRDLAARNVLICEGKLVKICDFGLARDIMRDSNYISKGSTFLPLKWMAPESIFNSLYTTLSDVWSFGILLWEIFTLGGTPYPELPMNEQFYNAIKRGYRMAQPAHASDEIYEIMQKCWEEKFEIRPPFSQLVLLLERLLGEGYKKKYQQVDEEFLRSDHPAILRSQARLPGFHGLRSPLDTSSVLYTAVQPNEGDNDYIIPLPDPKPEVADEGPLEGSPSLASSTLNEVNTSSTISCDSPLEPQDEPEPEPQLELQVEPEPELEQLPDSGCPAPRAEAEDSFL
Chain of Vascular endothelial growth factor receptor 1 (Homo sapiens) (P17948 whole entry): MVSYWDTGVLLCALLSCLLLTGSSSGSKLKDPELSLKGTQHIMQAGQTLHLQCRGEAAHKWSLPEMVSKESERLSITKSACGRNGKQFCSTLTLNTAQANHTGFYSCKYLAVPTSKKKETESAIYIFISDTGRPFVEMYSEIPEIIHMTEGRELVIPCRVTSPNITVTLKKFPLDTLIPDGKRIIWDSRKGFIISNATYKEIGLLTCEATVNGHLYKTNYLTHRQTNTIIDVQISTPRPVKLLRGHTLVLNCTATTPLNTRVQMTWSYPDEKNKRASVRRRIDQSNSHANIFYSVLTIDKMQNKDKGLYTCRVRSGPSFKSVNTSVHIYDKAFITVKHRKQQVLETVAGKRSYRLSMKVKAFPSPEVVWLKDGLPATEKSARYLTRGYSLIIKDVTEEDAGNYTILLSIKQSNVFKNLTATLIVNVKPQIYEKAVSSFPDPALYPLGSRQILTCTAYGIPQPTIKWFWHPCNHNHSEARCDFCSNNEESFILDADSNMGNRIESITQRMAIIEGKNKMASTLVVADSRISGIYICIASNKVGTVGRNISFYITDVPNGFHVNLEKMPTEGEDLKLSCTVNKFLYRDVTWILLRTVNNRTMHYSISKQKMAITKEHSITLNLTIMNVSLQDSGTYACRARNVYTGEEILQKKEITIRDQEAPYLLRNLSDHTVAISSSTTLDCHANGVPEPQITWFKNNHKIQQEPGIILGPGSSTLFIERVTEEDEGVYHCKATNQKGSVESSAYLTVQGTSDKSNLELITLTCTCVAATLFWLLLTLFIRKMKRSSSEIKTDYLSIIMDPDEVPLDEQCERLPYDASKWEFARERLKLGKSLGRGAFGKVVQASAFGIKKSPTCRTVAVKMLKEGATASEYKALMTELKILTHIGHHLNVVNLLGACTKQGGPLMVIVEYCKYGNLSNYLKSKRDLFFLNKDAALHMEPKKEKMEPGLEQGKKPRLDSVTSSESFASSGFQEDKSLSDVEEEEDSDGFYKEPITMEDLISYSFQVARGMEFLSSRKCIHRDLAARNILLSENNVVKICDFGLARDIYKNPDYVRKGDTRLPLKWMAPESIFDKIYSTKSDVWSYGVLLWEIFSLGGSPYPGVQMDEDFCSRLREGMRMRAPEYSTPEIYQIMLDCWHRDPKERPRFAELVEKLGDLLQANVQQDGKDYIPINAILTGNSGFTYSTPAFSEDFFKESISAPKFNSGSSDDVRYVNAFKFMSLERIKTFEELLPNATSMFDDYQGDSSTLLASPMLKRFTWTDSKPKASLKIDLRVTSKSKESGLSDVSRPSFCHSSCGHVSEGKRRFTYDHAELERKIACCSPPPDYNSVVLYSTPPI
Chain of Aurora kinase B (Q96GD4 whole entry): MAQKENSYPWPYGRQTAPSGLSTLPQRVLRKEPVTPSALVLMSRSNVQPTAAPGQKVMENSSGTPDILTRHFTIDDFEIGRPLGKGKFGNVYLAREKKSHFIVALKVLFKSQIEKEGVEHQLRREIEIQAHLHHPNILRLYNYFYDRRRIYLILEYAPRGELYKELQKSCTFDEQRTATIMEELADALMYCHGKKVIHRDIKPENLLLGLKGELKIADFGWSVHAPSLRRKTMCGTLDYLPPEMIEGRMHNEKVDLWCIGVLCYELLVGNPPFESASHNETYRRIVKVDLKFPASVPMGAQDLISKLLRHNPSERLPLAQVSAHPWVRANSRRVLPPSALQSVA

**Q.** With `Cc1ccc(C2=Nc3c(n[nH]c3C)Nc3nc(N4CCOCC4)ncc32)cc1` as the compound, how does the IC50 (MKN-45 [1]) read?
**A.** 1260 nM

**Q.** And the half-life [2]?
**A.** 3.27 h

**Q.** And the Vd [3]?
**A.** 2.01 L/kg

**Q.** What about the Cmax [4] of the same compound?
**A.** 2780 ng/mL

**Q.** And the IC50 [5]?
**A.** 21.6 nM

**Q.** And the inhibition [6]?
**A.** 1.4%

**Q.** What about the MRT [7] of the same compound?
**A.** 1.93 h

**Q.** What about the inhibition [8] of the same compound?
**A.** 28.1%

**Q.** What about the AUCt (Mus musculus [9]) of the same compound?
**A.** 15335 ng·mL·h

**Q.** What about the inhibition [10] of the same compound?
**A.** 24.5%

**Q.** What about the Activity (MKN-74 [11]) of the same compound?
**A.** Dose-dependent effect

**Q.** And the inhibition [12]?
**A.** 0%

**Q.** What about the Activity (Mus musculus [13]) of the same compound?
**A.** Non-Toxic

**Q.** What about the inhibition [14] of the same compound?
**A.** 0%

**Q.** What about the inhibition [15] of the same compound?
**A.** 28.7%

**Q.** What about the inhibition [16] of the same compound?
**A.** 13.2%

**Q.** What about the IC50 (BGC-823) of the same compound?
**A.** > 10000 nM

**Q.** And the AUCt (Mus musculus [17])?
**A.** 4724 ng·mL·h

**Q.** And the inhibition [18]?
**A.** 41%

**Q.** What about the Activity (MKN-45 [19]) of the same compound?
**A.** Dose-dependent effect

**Q.** And the Tmax [20]?
**A.** 0.5 h

**Q.** What about the T/C (SNU-5 [21]) of the same compound?
**A.** 61.63%

**Q.** And the half-life [22]?
**A.** 1.53 h

**Q.** And the inhibition [23]?
**A.** 0%

**Q.** And the inhibition [24]?
**A.** 32%

**Q.** And the inhibition [25]?
**A.** 3.9%

**Q.** And the Activity (SGC-7901 [26])?
**A.** Dose-dependent effect

**Q.** And the inhibition [27]?
**A.** 0%

**Q.** What about the IC50 (SNU-5 [28]) of the same compound?
**A.** 1270 nM

**Q.** And the IC50 (SGC-7901 [29])?
**A.** > 10000 nM

**Q.** What about the inhibition [30] of the same compound?
**A.** 26.8%

**Q.** And the Activity (SNU-5 [31])?
**A.** Dose-dependent effect

**Q.** What about the IC50 (Aurora kinase A) of the same compound?
**A.** 46.2 nM

**Q.** And the IC50 (MKN-74 [32])?
**A.** 3140 nM

**Q.** And the Activity (Mus musculus [33])?
**A.** 18.4 g

**Q.** And the inhibition [34]?
**A.** 37.4%

**Q.** And the bioavailability [35]?
**A.** 63.8%

**Q.** What about the inhibition [36] of the same compound?
**A.** 68.7%

**Q.** What about the inhibition [37] of the same compound?
**A.** 17.5%

**Q.** And the inhibition [38]?
**A.** 12%

**Q.** And the IC50 (Aurora kinase B)?
**A.** 37.6 nM

**Q.** And the inhibition [39]?
**A.** 0%

**Q.** What about the inhibition [40] of the same compound?
**A.** 3%

**Q.** What about the clearance [41] of the same compound?
**A.** 17.3 mL/min/kg
